Some test systems named below: SF-268; MOLT-4; LOX IMVI; HCT-116; TK-10; OVCAR-8; OVCAR-4; SK-MEL-28; SN12C; KM12; RPMI-8226; IGROV-1; NCI-H522; NCI-H460; M14; U-251; DU-145; NCI/ADR-RES; SW-620; COLO 205.
Holding throughout (assay): NCI anticancer screen, dose series, 48 h

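Protocol summary: plate cells (96-well), add compound at 5 concentrations, incubate 48 h, interpolate endpoints linearly. Abbreviation: GI50, concentration required for 50% inhibition of growth.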 Calls of active or inactive are those of the source. No stated cut-off is given here; in the data, active = GI50 up to about 1.1 µM and inactive = higher.

For `Cc1ccc2c(C(=O)c3c(C)n(CCN4CCOCC4)c4ccccc34)cccc2c1`, the GI50 in the test with SF-268 is 11.7 µM (inactive); with MOLT-4 it was 3.88 µM (inactive); with LOX IMVI, 12.9 µM (inactive); in the test with HCT-116 it was 7.18 µM (inactive); in the test with TK-10, 23.7 µM (inactive); in the test with OVCAR-8, 10.8 µM (inactive). The GI50 in the test with OVCAR-4 was 15.4 µM (inactive); in the test on SK-MEL-28 it was 1.36 µM (inactive); in the test with SN12C, 31.3 µM (inactive); with KM12 it was 16.3 µM (inactive); in the test on RPMI-8226, 0.0592 µM (active); with IGROV-1, 19.3 µM (inactive). Further, the GI50 in the test with NCI-H522 was 10.6 µM (inactive); with NCI-H460 it was 21.1 µM (inactive); with M14 it was 16.3 µM (inactive); in the test with U-251, 12.9 µM (inactive); in the test on DU-145, 27.5 µM (inactive); with NCI/ADR-RES it was 12.4 µM (inactive). The GI50 in the test on SW-620 is 0.685 µM (active).

In the case of `CN1C(=O)C(O)CC1c1ccccc1F` (centres undefined), the GI50 in the test with MOLT-4, in the test with LOX IMVI, in the test with HCT-116, in the test on OVCAR-8, in the test on OVCAR-4 and in the test with SK-MEL-28 was > 100 µM (inactive) each time. The GI50 in the test on SN12C, in the test with KM12, in the test with RPMI-8226, in the test with IGROV-1, in the test on NCI-H522 and in the test on COLO 205 was > 100 µM (inactive) throughout. In addition, the GI50 with NCI-H460, in the test on M14, with U-251, in the test on DU-145, in the test with NCI/ADR-RES and in the test on SW-620 was > 100 µM (inactive) each time.

For the compound `C[C@@H](C(=O)O)N1C(c2ccco2)=C(/C(C=O)=C\c2ccco2)C(=O)/C1=C\c1ccco1`, the GI50 in the test with SF-268, with MOLT-4, in the test on LOX IMVI, with HCT-116, with TK-10 and in the test with OVCAR-8 was > 100 µM (inactive) each time. For the same compound, the GI50 with OVCAR-4, in the test with SK-MEL-28, in the test with SN12C, in the test on KM12, in the test with RPMI-8226 and with IGROV-1 was > 100 µM (inactive) in each case. Further, the GI50 in the test on NCI-H522, with COLO 205, in the test with M14, with U-251, in the test on DU-145 and in the test with NCI/ADR-RES was > 100 µM (inactive) in each case. Also, the GI50 with SW-620 was > 100 µM (inactive).

`CC1(C)O[C@H]2Cn3c(c(C#N)c4ccccc43)[C@H]2O1`: the GI50 in the test on SF-268, in the test with HCT-116, in the test with TK-10, in the test with OVCAR-4, in the test on SK-MEL-28 and in the test with SN12C was > 100 µM (inactive) in each case. Besides, the GI50 in the test on KM12, in the test with RPMI-8226, with IGROV-1, with NCI-H522, in the test on COLO 205 and with NCI-H460 was > 100 µM (inactive) throughout. Also, the GI50 in the test on M14, with U-251, in the test with DU-145 and in the test on NCI/ADR-RES was > 100 µM (inactive) in each case.

`COC(=O)/C=C/c1ccc2c(c1)CCC2`: the GI50 in the test on SF-268 was 42.9 µM (inactive); with MOLT-4, 41.9 µM (inactive); in the test on LOX IMVI it was > 100 µM (inactive); with HCT-116, 22.3 µM (inactive); in the test with TK-10, > 100 µM (inactive); with OVCAR-8 it was 53.5 µM (inactive). Besides, the GI50 is 74.3 µM (inactive) in the test with OVCAR-4; > 100 µM (inactive) in the test on SK-MEL-28; 74.5 µM (inactive) with RPMI-8226; 36.5 µM (inactive) with IGROV-1; 22.1 µM (inactive) with NCI-H522; > 100 µM (inactive) in the test on NCI-H460. Moreover, the GI50 is 64.3 µM (inactive) with M14; 9.79 µM (inactive) in the test with U-251; 43.3 µM (inactive) with DU-145; 24.5 µM (inactive) with NCI/ADR-RES; 5.13 µM (inactive) in the test with SW-620.

Take `S=c1[nH]nc(Cn2c3ccc(Br)cc3c3nc4ccccc4nc32)n1C1CCCCC1`: the GI50 in the test with SF-268 is 51.6 µM (inactive); with HCT-116, 12.1 µM (inactive); in the test with TK-10, > 47.8 µM (inactive); in the test on OVCAR-8 it was 22.6 µM (inactive); with OVCAR-4, 13.7 µM (inactive); in the test on SK-MEL-28, 9.44 µM (inactive). Moreover, the GI50 is 25 µM (inactive) with SN12C; 32.7 µM (inactive) in the test on KM12; 17.7 µM (inactive) in the test with RPMI-8226; 21.4 µM (inactive) in the test with IGROV-1; 21.3 µM (inactive) in the test with NCI-H522; 20.2 µM (inactive) in the test with NCI-H460. Moreover, the GI50 in the test with M14 is 29.8 µM (inactive); in the test on U-251, 18.5 µM (inactive); in the test on DU-145, 27.8 µM (inactive); with NCI/ADR-RES, 27 µM (inactive); in the test on SW-620, 25.3 µM (inactive).

Consider `Cn1c2c(c3c(=O)[nH]ncc31)CCCc1ccccc1-2`, for which the GI50 was 29.2 µM (inactive) in the test on SF-268; 0.0891 µM (active) in the test with MOLT-4; 21.6 µM (inactive) with LOX IMVI; 18.1 µM (inactive) with HCT-116; 28.7 µM (inactive) in the test with TK-10; 24.9 µM (inactive) with OVCAR-8. Besides, the GI50 in the test with OVCAR-4 is 37.4 µM (inactive); in the test with SN12C it was 25.6 µM (inactive); in the test with KM12 it was 37.3 µM (inactive); with RPMI-8226, 17.4 µM (inactive); in the test on IGROV-1 it was 24.5 µM (inactive); with NCI-H522, 18.2 µM (inactive). Moreover, the GI50 with COLO 205 was 17.9 µM (inactive); in the test on NCI-H460, 23.6 µM (inactive); with M14, 39.3 µM (inactive); in the test with U-251, 27.9 µM (inactive); with DU-145, 37.9 µM (inactive); in the test on NCI/ADR-RES, 36.7 µM (inactive). Besides, the GI50 in the test on SW-620 was 34.3 µM (inactive).

For `CC1=C(C)CC2(C=C(C(C)(C)C)C(=O)C(C(C)(C)C)=C2)SC1`, the GI50 was 19.5 µM (inactive) with SF-268; 27.4 µM (inactive) with MOLT-4; 17.4 µM (inactive) in the test with LOX IMVI; 28.4 µM (inactive) in the test on HCT-116; 18.6 µM (inactive) in the test on TK-10; 26.7 µM (inactive) in the test on OVCAR-4. Besides, the GI50 with SN12C is 17.4 µM (inactive); with KM12, 19.1 µM (inactive); in the test on RPMI-8226, 12.8 µM (inactive); in the test with IGROV-1, 13.9 µM (inactive); with NCI-H522, 1.91 µM (inactive); in the test on COLO 205, 17.6 µM (inactive). The GI50 in the test on NCI-H460 is 27 µM (inactive); with M14, 24.7 µM (inactive); with U-251 it was 15.6 µM (inactive); in the test on DU-145, 39.3 µM (inactive); in the test with NCI/ADR-RES it was 19.1 µM (inactive); with SW-620 it was 18.2 µM (inactive).

Take `CC(=O)/C(=C\NC(=S)Nc1ccc(S(N)(=O)=O)cc1)C(=O)Nc1ccccc1C`: the GI50 in the test on SF-268 was 99.8 µM (inactive); with MOLT-4 it was 28.5 µM (inactive); in the test with LOX IMVI, 20 µM (inactive); in the test with HCT-116, 40.5 µM (inactive); with TK-10, 88.7 µM (inactive); with OVCAR-8 it was 72.9 µM (inactive). Besides, the GI50 in the test on OVCAR-4 is 36.9 µM (inactive); with SN12C it was 71 µM (inactive); with KM12, 43.3 µM (inactive); with RPMI-8226, 30.3 µM (inactive); with IGROV-1 it was 55.3 µM (inactive); with NCI-H522 it was 41.7 µM (inactive). The GI50 is 18.5 µM (inactive) with COLO 205; 27 µM (inactive) in the test on NCI-H460; 37.8 µM (inactive) in the test on M14; 45 µM (inactive) with U-251; 57.7 µM (inactive) in the test with DU-145; > 100 µM (inactive) in the test with NCI/ADR-RES. The GI50 in the test with SW-620 was 37.4 µM (inactive).

Consider `CC1(C)C2CC3C4CC5(Nc6ccccc6C5N41)[C@]3(C)CC2=O` (some centres undefined), for which the GI50 in the test with SF-268, in the test with MOLT-4, in the test on LOX IMVI, in the test with HCT-116, with TK-10 and in the test on OVCAR-8 was > 50 µM (inactive) each time. Further, the GI50 in the test on OVCAR-4, in the test on SK-MEL-28, in the test on SN12C, with KM12, in the test with RPMI-8226 and in the test with IGROV-1 was > 50 µM (inactive) throughout. Further, the GI50 in the test on NCI-H522, in the test with COLO 205, in the test on NCI-H460, in the test with U-251, with DU-145 and with NCI/ADR-RES was > 50 µM (inactive) throughout. The GI50 in the test on SW-620 is > 50 µM (inactive).

`O=c1oc2ccc3ccccc3c2cc1-c1nnc(-c2ccc([N+](=O)[O-])cc2)[nH]1`: the GI50 in the test on SF-268 was 0.0807 µM (active); in the test with MOLT-4, 71.4 µM (inactive); with LOX IMVI, 38.8 µM (inactive); in the test on HCT-116, > 100 µM (inactive); with OVCAR-8, 21.4 µM (inactive); with OVCAR-4, > 100 µM (inactive). In addition, the GI50 with SK-MEL-28 was > 100 µM (inactive); in the test with KM12, > 100 µM (inactive); in the test with RPMI-8226, > 100 µM (inactive); in the test with IGROV-1 it was 0.184 µM (active); in the test on NCI-H522, 92 µM (inactive); in the test with COLO 205, > 100 µM (inactive). Further, the GI50 in the test with NCI-H460 is > 100 µM (inactive); in the test on M14, > 100 µM (inactive); with U-251 it was 29.6 µM (inactive); in the test with DU-145 it was 87.3 µM (inactive); with NCI/ADR-RES it was > 100 µM (inactive); with SW-620, > 100 µM (inactive).

Values taken from ChEMBL document CHEMBL1201862, “PubChem BioAssay data set” (2004).
